Common to all, as to assay type: cell-based, human
The subject of one test is ANGM-CSS. Briefly: cell viability / cytotoxicity by WST-1 colorimetric assay in ANGM-CSS. The note with it: alone. As to the method: (§1) The cell line ANGM-CSS and U118-MG were used, human glioblastoma multiforme (GBM) lines. The ANGM-CSS cell line (ECACC cat n°08040401) was supplied by Dr. Angelo Notarangelo, Laboratorio di Citogenetica, IRCCS Casa Sollievo della Sofferenza, San Giovanni Rotondo (FG), Italy. The U118-MG line was purchased from ATCC, Manassas, VA, USA. The culture medium consisted of DMEM:HAMS F12 (1:1) (Sigma-Aldrich) with the addition of 2mM of L-Glutamine (Sigma Aldrich), 10% Fetal Bovine Serum (FBS, Sigma-Aldrich), 100 units/ml penicillin and 100µg/ml streptomycin (P/S) at 37°C in an atmosphere with 5% CO2.
(§2) The cytotoxicity was evaluated via a colorimetric assay, using WST-1 (4-[3-(4-iodophenyl)-2-(4-nitrophenyl)-2H-5-tetrazolium]-1,3-benzene disulfonate) (Roche, Mannheim, Germany). The inhibition of the cell proliferation is expressed as a percentage of the absorbance at 450nm relative to the non-treated cells in culture. The absorbance was measured by an Enspire microplate reader (PerkinElmer, Wellesley, MA, USA).
(§3) The compound 1 was tested on the two cell lines of human glioblastoma multiforme ANGM-CSS and U118MG, which are resistant to temozolomide.

The subject of another test is U118-MG. Briefly: cell viability / cytotoxicity by WST-1 colorimetric assay in U118-MG. The note with it: alone, 10µM and 100µM. As to the method:
as §1, §2, §3

Another test relates to U87MG cells. In words: cell viability by MTS assay in U87MG cells. The conditions noted are these: 72 hours. As for the experimental part: The human cells of glioblastoma multiforme U87MG were obtained from the national cancer research institute in Genoa (Italy) and were monitored to determine the DNA profiling. The U87MG cells were cultivated in RPMI medium with the addition of 10% FBS, 2 mM of L-glutamine, 100 U/ml of penicillin, […] of streptomycin and 1% of non-essential amino acids at 37°C in 5% CO2. The cells were used in the successive experiments up to the fourth detaching passage.
The U87MG cells were grown at 37°C in a humid atmosphere in the presence of 5% CO2. and were placed in a plate at a density of 3,000 cells/well. After 24 hours, the culture medium was replaced with fresh culture medium containing different concentrations of the compound 9 solubilized in DMSO. After 72 hours, the cell viability was assayed by means of MTS assay according to the manufacturer's instructions. […] The formazan formed is determined via reading of the absorbance at 490 nm measured with an automated plate reader (Victor Wallac 2, Perkin Elmer). […] The results were calculated by subtracting the mean background value from the values obtained from each evaluation and were expressed as a control percentage (non-treated cells). […] At the end of the treatments, the cell viability was determined by means of MTS assay.

Where a name gives a salt, the structure may show the parent alone.

On to `COc1cc2c(cc1OC)CN(CC(=O)Nc1ccc3c(c1)/C(=C/c1cccs1)C(=O)N3)CC2` [compound 1, N-[(3Z)-(2-oxo-3-(thiophene-2-ylmethylene)-2,3-dihydro-1H-indol-5-yl]-2-(6,7-dimethoxy-3,4-dihydroisoquinol-2-(1H)-yl)-acetamide hydrochloride], for which the values for the cell viability result in the test with ANGM-CSS (10µM), in the test on ANGM-CSS (100 µM) and in the test with U118-MG were “no significant effect on cell viability”, “significant reduction in cell viability” and “significant reduction of cell viability”, respectively.
Consider `Cc1ccc(S(=O)(=O)Nc2ccc3c(c2)/C(=C/c2cnc[nH]2)C(=O)N3)cc1` [compound 9, N-[(3Z)-3-(1H-imidazol-5-ylmethylidene)-2-oxo-2,3-dihydro-1H-indol-5-yl]-4-methylbenzenesulfonamide], for which the cell viability entry with U87MG cells (compound alone at 100 nM, 500 nM, 1 µM) is recorded as “inhibits cell viability, in a concentration-dependent way”. Also, in the test on U87MG cells (Homo sapiens, U-87 MG, compound alone, read-out: concentration from which the effect on cell viability is significant), the minimal effective concentration is not below 0.5 µM.
